Eleven molecules from ChEMBL document CHEMBL1201862, “PubChem BioAssay data set” (2004) can be followed below.

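Step 1: Grow cells in 96-well plates. Step 2: Expose to compound for 48 hours at 5 concentrations. Step 3: Interpolate endpoints linearly; if unreached, use highest concentration. Abbreviation: GI50, concentration required for 50% inhibition of growth.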 Calls of active or inactive are those of the source. No stated cut-off is given here; in the data, active = GI50 up to about 1.1 µM and inactive = higher. A value given as a limit tells only on which side of the number the result lay.

Among the test systems are DU-145; MDA-MB-231; RPMI-8226; MDA-N; Malme-3M; SF-268; HCC 2998; HOP-62; RXF 393; SF-295; UACC-62; SR; HL-60; NCI-H23; CAKI-1; SK-MEL-5; HCT-116; SW-620; SK-MEL-28; BT-549.
Test in all cases: NCI anticancer screen, dose series, 48 h

For the molecule `NC(=O)/N=C1\NCCC(=O)N1CCc1c[nH]c2ccccc12`, the GI50 in the experiment with DU-145 is 21 µM (inactive); in the experiment with MDA-MB-231, 8.09 µM (inactive); in the experiment with RPMI-8226, 18.7 µM (inactive); in the experiment with MDA-N, 19.9 µM (inactive); with Malme-3M it was 18.4 µM (inactive); in the experiment with SF-268, 13.8 µM (inactive). In addition, the GI50 in the experiment with HCC 2998 was 19.4 µM (inactive); in the experiment on HOP-62, 19.4 µM (inactive); in the experiment on RXF 393, 12.1 µM (inactive); in the experiment with SF-295 it was 41.2 µM (inactive); with UACC-62, 18.2 µM (inactive); in the experiment on SR, 25.8 µM (inactive). In addition, the GI50 is 19.2 µM (inactive) in the experiment with HL-60; 22.7 µM (inactive) with NCI-H23; 0.426 µM (active) in the experiment on CAKI-1; 18.7 µM (inactive) in the experiment on SK-MEL-5; 12.4 µM (inactive) with HCT-116; 26.7 µM (inactive) with SW-620. Moreover, the GI50 in the experiment with SK-MEL-28 is 20.9 µM (inactive).
On to `N#Cc1cc2c(cc1Cl)Sc1nccn1S2(=O)=O`, for which the GI50 was 2.33 µM (inactive) in the experiment on DU-145; 3.59 µM (inactive) in the experiment on MDA-MB-231; 2.92 µM (inactive) with RPMI-8226; 6.79 µM (inactive) with Malme-3M; 3.33 µM (inactive) in the experiment with SF-268; 3.38 µM (inactive) in the experiment with HOP-62. The GI50 in the experiment on RXF 393 is 4.61 µM (inactive); with SF-295, 4.31 µM (inactive); in the experiment on UACC-62 it was 2.55 µM (inactive); in the experiment with SR, 1 µM (active); in the experiment on BT-549, 3.32 µM (inactive); in the experiment on HL-60, 3.08 µM (inactive). The GI50 with NCI-H23 is 1.51 µM (inactive); with CAKI-1, 1.4 µM (inactive); in the experiment with SK-MEL-5 it was 9.93 µM (inactive); with HCT-116 it was 1.79 µM (inactive); in the experiment with SW-620, 3.54 µM (inactive); in the experiment with SK-MEL-28, 2.32 µM (inactive).
As for `O=C(NC1=C(Cl)C(=O)c2ccccc2C1=O)C(=O)C(C(=O)c1ccc2ccccc2c1)C1OC(=O)c2ccccc21` (centres undefined), the GI50 in the experiment with DU-145 was 10.6 µM (inactive); in the experiment with RPMI-8226, 2.05 µM (inactive); in the experiment with Malme-3M it was 1.7 µM (inactive); in the experiment on SF-268 it was 4.53 µM (inactive); in the experiment on HCC 2998, 9.55 µM (inactive); with HOP-62 it was 5.82 µM (inactive). In addition, the GI50 with RXF 393 is 4.49 µM (inactive); with SF-295, 3.3 µM (inactive); in the experiment with UACC-62 it was 1.73 µM (inactive); with SR it was 3.31 µM (inactive); in the experiment with BT-549, 3.48 µM (inactive); in the experiment with HL-60, 2.49 µM (inactive). For the same molecule, the GI50 is 2.9 µM (inactive) in the experiment on NCI-H23; 6.34 µM (inactive) in the experiment on CAKI-1; 0.564 µM (active) with SK-MEL-5; 3.52 µM (inactive) with HCT-116; 5.13 µM (inactive) with SW-620; 4.59 µM (inactive) in the experiment with SK-MEL-28.
Take `N/C(=N\c1ccc(Cl)cc1)NS(=O)(=O)c1ccc(-c2ncccc2C(F)(F)F)s1`: the GI50 in the experiment on DU-145 is 17.1 µM (inactive); with MDA-MB-231, 13.9 µM (inactive); in the experiment on RPMI-8226 it was 17.3 µM (inactive); in the experiment with Malme-3M it was 15.2 µM (inactive); in the experiment on SF-268, 16.5 µM (inactive); in the experiment on HOP-62, 18.2 µM (inactive). Also, the GI50 with RXF 393 is 18.3 µM (inactive); with SF-295, 16.1 µM (inactive); in the experiment with UACC-62, 11.3 µM (inactive); in the experiment with SR, 10.5 µM (inactive); with BT-549 it was 14.9 µM (inactive); in the experiment on HL-60 it was 15.2 µM (inactive). The GI50 in the experiment with NCI-H23 is 13.5 µM (inactive); in the experiment on SK-MEL-5, 20.5 µM (inactive); in the experiment with HCT-116, 14 µM (inactive); in the experiment on SW-620 it was 15.3 µM (inactive); with SK-MEL-28 it was 16.9 µM (inactive).
For the molecule `COc1ccc(N[S+]([O-])c2ccccc2OC)cc1` (centres undefined), the GI50 is 27.5 µM (inactive) in the experiment with DU-145; 15 µM (inactive) in the experiment on MDA-MB-231; 18.7 µM (inactive) with RPMI-8226; 33.4 µM (inactive) with MDA-N; 19.6 µM (inactive) in the experiment on Malme-3M; 7.28 µM (inactive) with SF-268. Further, the GI50 is > 10 µM (inactive) in the experiment on HCC 2998; 37.2 µM (inactive) in the experiment with HOP-62; 31.7 µM (inactive) in the experiment with SF-295; 2.07 µM (inactive) in the experiment on UACC-62; 11.9 µM (inactive) with SR; 17.7 µM (inactive) in the experiment with HL-60. The GI50 was 40.8 µM (inactive) in the experiment with NCI-H23; 25.8 µM (inactive) with CAKI-1; 11.2 µM (inactive) with SK-MEL-5; 13.9 µM (inactive) with HCT-116; 22.7 µM (inactive) with SW-620; 54.8 µM (inactive) in the experiment on SK-MEL-28.
With `CO[C@H]1[C@@H](O)[C@@H](C)O[C@@H](O[C@H]2CC[C@@]3(C)[C@H](CC[C@@H]4[C@@H]3CC[C@]3(C)[C@@H](C5=CC(=O)OC5)[C@@H](OC(C)=O)C[C@]43O)C2)[C@@H]1O` [NERITALOSIDE], the GI50 was 0.0176 µM (active) with DU-145; 0.198 µM (active) with MDA-MB-231; 0.17 µM (active) in the experiment with RPMI-8226; 0.016 µM (active) with Malme-3M; 0.024 µM (active) in the experiment with SF-268; 0.23 µM (active) with HCC 2998. Also, the GI50 is 0.0253 µM (active) in the experiment on HOP-62; 0.0164 µM (active) in the experiment with RXF 393; 0.0461 µM (active) in the experiment on SF-295; 0.1 µM (active) in the experiment on UACC-62; 0.0533 µM (active) in the experiment with SR; 0.0331 µM (active) in the experiment with BT-549. Also, the GI50 was 0.0566 µM (active) in the experiment on HL-60; 0.027 µM (active) with NCI-H23; 0.0208 µM (active) in the experiment on CAKI-1; 0.0405 µM (active) in the experiment with SK-MEL-5; 0.0219 µM (active) in the experiment on HCT-116; 0.111 µM (active) in the experiment on SW-620. Further, in the experiment on SK-MEL-28, the GI50 is 0.291 µM (active).
Turning to `Cn1c2ccc3cc2c(=S)c2cc(ccc21)OCCOCCOCCOCCOCCOCCO3`, the GI50 in the experiment with DU-145, in the experiment with RPMI-8226, in the experiment on MDA-N, in the experiment with Malme-3M, in the experiment with SF-268 and in the experiment with HCC 2998 was > 10 µM (inactive) throughout. For the same molecule, the GI50 in the experiment with HOP-62, in the experiment on RXF 393, in the experiment with SF-295, in the experiment on SR, in the experiment with BT-549 and in the experiment with HL-60 was > 10 µM (inactive) each time. For the same molecule, the GI50 in the experiment on NCI-H23, in the experiment on CAKI-1, with SK-MEL-5, in the experiment with HCT-116, in the experiment with SW-620 and in the experiment on SK-MEL-28 was > 10 µM (inactive) each time.
For `[N-]=[N+]=CC(=O)OCC1NC(=O)C(COC(=O)C=[N+]=[N-])NC1=O` (centres undefined), the GI50 in the experiment on DU-145, in the experiment with MDA-MB-231, in the experiment with RPMI-8226, in the experiment on MDA-N, in the experiment on Malme-3M and in the experiment on SF-268 was > 100 µM (inactive) throughout. Further, the GI50 in the experiment with HCC 2998, with HOP-62, in the experiment with SF-295, in the experiment on UACC-62, in the experiment on SR and with HL-60 was > 100 µM (inactive) throughout. Further, the GI50 in the experiment with NCI-H23, in the experiment with CAKI-1, with HCT-116, in the experiment with SW-620 and in the experiment with SK-MEL-28 was > 100 µM (inactive) throughout.
Turning to `Cc1ccc(C2(c3ccc(C)cc3)SC(=C(C#N)C#N)c3ccccc32)cc1`, the GI50 with DU-145 is > 100 µM (inactive); with MDA-MB-231, > 100 µM (inactive); with Malme-3M it was 87.9 µM (inactive); in the experiment on SF-268 it was > 100 µM (inactive); in the experiment on HCC 2998, 89.7 µM (inactive); with HOP-62 it was 31.4 µM (inactive). In addition, the GI50 in the experiment on RXF 393 is > 100 µM (inactive); in the experiment on SF-295 it was 97.9 µM (inactive); with UACC-62 it was 53 µM (inactive); with SR it was 27.6 µM (inactive); in the experiment with BT-549, > 100 µM (inactive); with HL-60 it was 26.3 µM (inactive). For the same molecule, the GI50 in the experiment on NCI-H23 is > 100 µM (inactive); in the experiment with SK-MEL-5 it was > 100 µM (inactive); with HCT-116 it was 13.2 µM (inactive); in the experiment on SW-620, 6.75 µM (inactive); in the experiment with SK-MEL-28, > 100 µM (inactive).
`N#CC(C(=O)/C(=N/Nc1nc(S)nn1N)C(C#N)c1ccccc1)c1ccccc1` (centres undefined): the GI50 in the experiment on DU-145, with MDA-MB-231, with RPMI-8226, with Malme-3M, in the experiment on SF-268 and in the experiment with HCC 2998 was > 100 µM (inactive) in each case. For the same molecule, the GI50 with HOP-62, with RXF 393, in the experiment with SF-295, in the experiment with UACC-62, with SR and with BT-549 was > 100 µM (inactive) in each case. The GI50 in the experiment on HL-60, in the experiment on NCI-H23, with CAKI-1, with SK-MEL-5, in the experiment on HCT-116 and in the experiment with SW-620 was > 100 µM (inactive) in each case. Further, the GI50 with SK-MEL-28 was > 100 µM (inactive).
For the molecule `Cc1nc(Cl)nc(Cl)c1C`, the GI50 in the experiment on RPMI-8226, in the experiment on Malme-3M, in the experiment on SF-268, in the experiment on HCC 2998, with HOP-62 and in the experiment with RXF 393 was > 100 µM (inactive) each time. Besides, the GI50 in the experiment on SF-295 is > 100 µM (inactive); with SR, > 100 µM (inactive); in the experiment on BT-549, 75.7 µM (inactive); with HL-60 it was > 100 µM (inactive); in the experiment with NCI-H23 it was > 100 µM (inactive); with SK-MEL-5, > 100 µM (inactive). In addition, the GI50 in the experiment with SW-620 and with SK-MEL-28 was > 100 µM (inactive) in each case.
